Tests used:
[1] = TRAP assay (quenching of ABTS+ radical cation); type: biochemical; details: 10 μmol compound, 5 min, absorbance 734 nm; Troxol reference
Protocol: The anti-oxidant activities of PB 141 were determined by the ability of this compound to react with pre-formed radical monocation of 2,2′-azinobis-(3-ethylbenzothiazoline)-6-sulfonic acid (ABTS^+). Data are representative of one of two independent experiments; n=3; *** P<0.001 versus Troxol.
The anti-oxidant activity of PB141 or PB157 was determined by the ability of these compounds to react with the pre-formed radical monocation of 2,2′-azinobis-(3-ethylbenzothiazoline)-6-sulfonic acid (ABTS^+). ABTS (1.8 mmol) was reacted overnight with potassium persulfate (0.63 mmol) in double distilled water, at room temperature in the dark, to generate the dark blue ABTS^+ radical cation. This radical cation has a maximum absorption at 734 nm. Immediately prior to the experiment, ABTS^+ was diluted with absolute ethanol to an absorbance of approximately 0.7 at 734 nm. PB141 or PB157 (10 μmol) was added to ABTS^+ (1 ml) and mixed by vortexing. The reaction was allowed to stabilize for 5 min and the absorbance was measured. The anti-oxidant activities of these compounds were determined by their ability to quench the color of the radical cation. Troxol (10 μmol) was used as reference standard.

[2] = FRAP assay (ferric reduction/anti-oxidant power); type: biochemical; details: 10 μmol compound, 5 min, 593 nm; Troxol reference
Protocol: The antioxidant activity of PB141 was determined by ferric reduction/anti-oxidant power (FRAP) assay in which the compound is reacted with ferric tripyridyltriazine complex. Data are representative of one of two independent experiments; n=3; *** P<0.001 versus Troxol.
The antioxidant activity of PB141 or PB157 was determined by ferric reduction/anti-oxidant power (FRAP) assay in which the compounds are reacted with ferric tripyridyltriazine complex. The ferric complex was prepared at room temperature by reaction of ferric chloride (16.7 mmol) and 2,4,6-trispyridyl-s-triazine (8.33 mmol) in pH 3.6 acetate buffer (0.25 M). The FRAP reagent was used immediately after preparation. PB141 or PB157 (10 μmol) was added to the FRAP reagent (1 ml) and mixed by vortexing. The reaction was allowed to stabilize for 5 min and the absorbance was measured. The antioxidant activities of these compounds were determined by the ability to reduce the ferric complex to a […] ferrous complex, monitored at 593 nm. Troxol (10 μmol) was used as reference standard.

BEAS-2B cells = type: cell-based
Protocol: To evaluate cell viability, apoptosis, and cytotoxicity, the Apo Tox-Glo Triplex assay was used according to the manufacturer's instructions (Promega, Madison, Wis.). Briefly, the BEAS-2B cells were plated at 2×10^4 cells/well in 100 μl medium in an opaque walled, clear-bottomed, 96-well plate. After 24 hr culture, they were treated for a further indicated time with different concentrations of PB141 or PB157. At the end of the culture period, 20 μl viability/cytotoxicity reagent was added to each well, mixed by orbital shaking (300 r.p.m. for 30 s) and incubated for 30 min at 37° C. Fluorescence was then measured with excitation at 400 nm and emission at 505 nm to assess cell viability, and 485 nm excitation and 520 nm emission to assess cytotoxicity; both were quantified as relative fluorescence units (RFU). Then, 100 μl Caspase-Glo 3/7 reagent was added to each well, mixed by orbital shaking (300 r.p.m. for 30 s) and incubated for 30 min at room temperature. Luminescence was measured to assess caspase activation as a marker of apoptosis and quantified as relative luminescence units. Results for PB141 and PB157 were similar.

CC(=O)N[C@@H](CSC(c1cnccn1)C1CCCC(C(SC[C@H](NC(C)=O)C(=O)O)c2cnccn2)C1=O)C(=O)O (stereo partly shown) [PB157]
Anti-oxidant activity (ability to quench ABTS+ radical cation) [1]: clearly demonstrated | Antioxidant activity (reduction of ferric complex) [2]: highly significant and approximately equal | Cytotoxicity (BEAS-2B cells): without exhibiting cytotoxicity | Apoptosis (caspase 3/7 activation) (BEAS-2B cells; different concentrations, data not shown): induced apoptosis
